Measurements published in PubChem BioAssay AID248 (DTP/NCI, 2004).
Values joined by “and” are separate entries in the source; they are usually repeats but may differ in a detail not shown here. Identical values can stand only once. Inconclusive results and toxic doses are left out. Cut-off read from the data, not from the text of the source: active = T/C of 150% or more; inactive = T/C below 125%.

Test system: L1210 leukemia ip in BDF1 mice, survival T/C
Experiment: NCI In Vivo Anticancer Drug Screen. Data for tumor model L1210 Leukemia (intraperitoneal) in B6D2F1 (BDF1) mice
Details: endpoint: mean survival time, higher = longer survival
How it was run: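 Transplantable tumor model; survival measured in treated vs vehicle control mice. Value = treated/control.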

[1] = dose: 100.0 mg/kg/injection, schedule: Q01DX009 (ip), vehicle: saline with Tween-80
[2] = dose: 100.0 mg/kg/injection, schedule: Q04DX003 (ip), vehicle: saline with Tween-80
[3] = dose: 200.0 mg/kg/injection, schedule: Q01DX009 (ip), vehicle: saline with Tween-80
[4] = dose: 200.0 mg/kg/injection, schedule: Q04DX003 (ip), vehicle: saline with Tween-80
[5] = dose: 400.0 mg/kg/injection, schedule: Q01DX009 (ip), vehicle: saline with Tween-80
[6] = dose: 400.0 mg/kg/injection, schedule: Q04DX003 (ip), vehicle: saline with Tween-80
[7] = dose: 100.0 mg/kg/injection, schedule: Q04DX002 (ip), vehicle: saline with Tween-80
[8] = dose: 200.0 mg/kg/injection, schedule: Q04DX002 (ip), vehicle: saline with Tween-80
[9] = dose: 400.0 mg/kg/injection, schedule: Q04DX002 (ip), vehicle: saline with Tween-80
[10] = dose: 100.0 mg/kg/injection, schedule: Q01DX001 (ip), vehicle: saline
[11] = dose: 200.0 mg/kg/injection, schedule: Q01DX001 (ip), vehicle: saline
[12] = dose: 400.0 mg/kg/injection, schedule: Q01DX001 (ip), vehicle: saline
[13] = dose: 100.0 mg/kg/injection, schedule: Q04DX003 (ip), vehicle: saline
[14] = dose: 200.0 mg/kg/injection, schedule: Q04DX003 (ip), vehicle: saline
[15] = dose: 400.0 mg/kg/injection, schedule: Q04DX003 (ip), vehicle: saline
[16] = dose: 100.0 mg/kg/injection, schedule: Q01DX001 (ip), vehicle: carboxymethylcellulose (CMC)
[17] = dose: 200.0 mg/kg/injection, schedule: Q01DX001 (ip), vehicle: carboxymethylcellulose (CMC)
[18] = dose: 400.0 mg/kg/injection, schedule: Q01DX001 (ip), vehicle: carboxymethylcellulose (CMC)
[19] = dose: 100.0 mg/kg/injection, schedule: Q04DX002 (ip), vehicle: Klucel (hydroxypropylcellulose) (HPC)

Measured: T/C

COc1ccc(NCc2ccccc2C#N)c(OC)c1
inactive: dose: 100.0 mg/kg/injection, schedule: Q04DX003 (ip), vehicle: Klucel (hydroxypropylcellulose) (HPC) 103 % of control | dose: 200.0 mg/kg/injection, schedule: Q04DX003 (ip), vehicle: Klucel (hydroxypropylcellulose) (HPC) 108 % of control | dose: 400.0 mg/kg/injection, schedule: Q04DX003 (ip), vehicle: Klucel (hydroxypropylcellulose) (HPC) 103 % of control

Nc1ccc(SCc2nc3cccc4c3n2CCC4)cc1
inactive: [1] 88 % of control | [2] 96 % of control | [3] 96 % of control | [4] 94 % of control | [5] 105 % of control | [6] 92 % of control

CCc1nc2nnnn2c(CC)c1-c1ccccc1O
inactive: [7] 98 % of control | [8] 104 % of control | [9] 88 % of control

C=CCC(C)/C(C)=C(/C#N)C(=O)OCC (stereo not given)
inactive: dose: 75.0 mg/kg/injection, schedule: Q01DX001 (ip), vehicle: other 107 % of control | dose: 150.0 mg/kg/injection, schedule: Q01DX001 (ip), vehicle: other 100 % of control

O=C(O)CC(O)c1ccccc1 (stereo not given)
inactive: dose: 75.0 mg/kg/injection, schedule: Q01DX001 (ip), vehicle: saline 109 % of control | dose: 150.0 mg/kg/injection, schedule: Q01DX001 (ip), vehicle: saline 93 % of control | dose: 300.0 mg/kg/injection, schedule: Q01DX001 (ip), vehicle: saline 112 % of control

CN1c2cccc[c]2[Sn]([c]2ccccc2)([c]2ccccc2)[c]2ccccc21
inactive: dose: 100.0 mg/kg/injection, schedule: Q01DX001 (ip), vehicle: steriod suspending solution 94 % of control | dose: 200.0 mg/kg/injection, schedule: Q01DX001 (ip), vehicle: steriod suspending solution 94 % of control | dose: 400.0 mg/kg/injection, schedule: Q01DX001 (ip), vehicle: steriod suspending solution 100 % of control

CC(=O)Nc1nc2ncc(C=Nc3cncnc3)nc2c(=O)[nH]1
inactive: dose: 100.0 mg/kg/injection, schedule: Q01DX001 (ip), vehicle: alkali diluted with saline 108 % of control | dose: 200.0 mg/kg/injection, schedule: Q01DX001 (ip), vehicle: alkali diluted with saline 94 % of control | dose: 400.0 mg/kg/injection, schedule: Q01DX001 (ip), vehicle: alkali diluted with saline 92 % of control

O=C(OC/C=C/CC(Cl)(Cl)Cl)C(Cl)(Cl)Cl
inactive: [10] 104 % of control | dose: 100.0 mg/kg/injection, schedule: Q01DX009 (ip), vehicle: acetone 93 % of control | dose: 100.0 mg/kg/injection, schedule: Q04DX003 (ip), vehicle: acetone 109 % of control | [11] 112 % of control | dose: 200.0 mg/kg/injection, schedule: Q01DX009 (ip), vehicle: acetone 90 % of control | dose: 200.0 mg/kg/injection, schedule: Q04DX003 (ip), vehicle: acetone 103 % of control | [12] 102 % of control | dose: 400.0 mg/kg/injection, schedule: Q04DX003 (ip), vehicle: acetone 93 % of control

O=C(N/N=C\c1c[nH]c2ccccc12)N/N=C/c1c[nH]c2ccccc12
inactive: [7] 97 % of control | [8] 104 % of control | [9] 97 % of control

NNc1cc(S(=O)(=O)O)cc2cc(S(=O)(=O)O)cc(O)c12
inactive: dose: 75.0 mg/kg/injection, schedule: Q01DX009 (ip), vehicle: Klucel (hydroxypropylcellulose) (HPC) 107 % of control | dose: 150.0 mg/kg/injection, schedule: Q01DX009 (ip), vehicle: Klucel (hydroxypropylcellulose) (HPC) 107 % of control | dose: 300.0 mg/kg/injection, schedule: Q01DX009 (ip), vehicle: Klucel (hydroxypropylcellulose) (HPC) 104 % of control

CCOC(=O)C1=NC=NC1=[N+]=[N-]
inactive: dose: 5.0 mg/kg/injection, schedule: Q01DX001 (ip), vehicle: saline 92 % of control | dose: 10.0 mg/kg/injection, schedule: Q01DX001 (ip), vehicle: saline 94 % of control | dose: 20.0 mg/kg/injection, schedule: Q01DX001 (ip), vehicle: saline 100 % of control

N#C/C(=N\Nc1ccc(S(=O)(=O)O)cc1)C(N)=O
inactive: [13] 104 % of control | [14] 100 % of control | [15] 98 % of control

Cc1ccc([Si](C)(C)C)cc1
inactive: dose: 25.6 mg/kg/injection, schedule: Q04DX002 (ip), vehicle: saline with Tween-80 90 % of control | dose: 64.0 mg/kg/injection, schedule: Q04DX002 (ip), vehicle: saline with Tween-80 104 % of control | dose: 160.0 mg/kg/injection, schedule: Q04DX002 (ip), vehicle: saline with Tween-80 90 % of control | [9] 90 % of control

CC(=O)OCCC/C(=C\c1ccc(C)cc1)[N+](=O)[O-]
inactive: [16] 88 % of control | [17] 88 % of control | [18] 88 % of control

NC(=O)c1csc(CCNC(=O)c2ccccc2)n1
inactive: dose: 100.0 mg/kg/injection, schedule: Q01DX001 (ip), vehicle: saline with Tween-80 100 % of control | [1] 100 % of control | [2] 95 % of control | dose: 200.0 mg/kg/injection, schedule: Q01DX001 (ip), vehicle: saline with Tween-80 102 % of control | [3] 100 % of control | [4] 103 % of control | dose: 400.0 mg/kg/injection, schedule: Q01DX001 (ip), vehicle: saline with Tween-80 104 % of control | [5] 89 % of control | [6] 101 % of control

Cc1c(O)cccc1F
inactive: dose: 25.0 mg/kg/injection, schedule: Q04DX002 (ip), vehicle: Klucel (hydroxypropylcellulose) (HPC) 98 % of control | dose: 50.0 mg/kg/injection, schedule: Q04DX002 (ip), vehicle: Klucel (hydroxypropylcellulose) (HPC) 102 % of control | [19] 111 % of control and 120 % of control

O=[N+]([O-])c1ccc(Cl)nc1
inactive: [10] 103 % of control | dose: 100.0 mg/kg/injection, schedule: Q01DX009 (ip), vehicle: saline sonified 100 % of control | [11] 101 % of control | dose: 200.0 mg/kg/injection, schedule: Q01DX009 (ip), vehicle: saline sonified 104 % of control | [12] 103 % of control

COc1ccc(CCO)c(OC)c1
inactive: dose: 50.0 mg/kg/injection, schedule: Q01DX001 (ip), vehicle: carboxymethylcellulose (CMC) 98 % of control | [16] 100 % of control | [17] 96 % of control | [18] 88 % of control

S=C(Nc1ccccc1)Nc1ccccc1Cl
inactive: [19] 100 % of control | dose: 200.0 mg/kg/injection, schedule: Q04DX002 (ip), vehicle: Klucel (hydroxypropylcellulose) (HPC) 100 % of control | dose: 400.0 mg/kg/injection, schedule: Q04DX002 (ip), vehicle: Klucel (hydroxypropylcellulose) (HPC) 95 % of control

COC(=O)c1ccccc1OC(=O)c1ccccc1
inactive: [13] 105 % of control | [14] 97 % of control | [15] 105 % of control

[B-][NH2+]c1ccc([NH2+][B-])cc1
inactive: [10] 96 % of control | [11] 91 % of control | [12] 100 % of control
